Usually pKi stands for the Ki on a negative log10 scale, so that one unit is a factor of ten.

T1 sequence (P34972 whole entry): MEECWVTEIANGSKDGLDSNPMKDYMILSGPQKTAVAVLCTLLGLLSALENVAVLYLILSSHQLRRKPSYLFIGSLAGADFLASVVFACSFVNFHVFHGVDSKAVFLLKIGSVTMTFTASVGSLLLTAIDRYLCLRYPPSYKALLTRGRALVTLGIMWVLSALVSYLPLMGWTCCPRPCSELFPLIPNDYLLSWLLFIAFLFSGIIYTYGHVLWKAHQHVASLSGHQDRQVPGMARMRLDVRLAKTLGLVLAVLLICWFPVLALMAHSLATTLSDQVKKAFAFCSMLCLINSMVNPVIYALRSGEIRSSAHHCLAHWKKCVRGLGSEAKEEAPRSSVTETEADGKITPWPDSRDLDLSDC

One test has as its target T1, human CB2 receptor (Homo sapiens, UniProt P34972). Kind of test: cAMP functional assay in Flpin-CHO-CB2 cells (antagonism of CP55940-mediated decrease in cAMP). The format is cell-based.
Conditions: not given
As for the experimental part: Compounds 1, 3, 6, 7, 8, 12, and 15 were further evaluated by cAMP functional assays.
The CB2 receptor antagonistic activities of the 7 compounds were evaluated by investigating CB2-mediated cAMP production in Flpin-CHO-K1 cells functional assay. The Flpin-CHO-K1 cells that are engineered to stably express human CB2 receptor (the Flpin-CHO-CB2 cells) were cultured in the growth medium (Ham’s F12K + 10%FBS + 1×Ps + 800 ug/mL HB) at 37 °C and 5% CO2. The cells were then collected by centrifugation and resuspended in Hank’s balanced salt solution (HBSS), 0.1% bovine serum albumin (BSA), 20 mM N-(2-hydroxyethyl)-piperazine-N0-ethanesulfonic acid (HEPES), and 500 μM 3-isobutyl-1-methylxanthine (IBMX). The test compounds were serially diluted in DMSO at 2-fold dilutions of 10 concentrations ranging from 10,000 μM to 20 μM. The antagonistic activities were evaluated by assessing their ability to counteract the agonist (CP55940)-mediated decrease in cAMP accumulation. The accumulation of cAMP was determined by following the manufacturer’s instructions for a Perkin Elmer cAMP kit.
`O=C(NC1CCCCCC1)c1cc(-c2cccs2)nn1Cc1ccc(F)cc1` [Compound 15] had an IC50 of 2.82 µM.

Staying with this test, now noted: cAMP functional assays, CB2 over CB1.
Take `Cc1cccn2c(=O)c(/C=C3\SC(=S)N(Cc4ccco4)C3=O)c(NCC3CCCO3)nc12` (stereo not shown) [Compound 8]: the “antagonistic activity towards the CB2 receptor in comparison to the CB1 receptor (selectivity)” value is listed as “more than 100 times”.

Staying with this test, now noted: human CB2 receptor, Flpin-CHO-CB2 cells, antagonism of CP55940; read-out: cAMP Assay pIC50 (converted).
Regarding `COc1ccc(-n2c(=O)c3c4c(sc3n(Cc3ccc(F)cc3)c2=O)CN(C(C)=O)CC4)cc1` [Compound 6], the IC50 is over 20 µM.
Take `COc1ccccc1Nc1sc(C(=O)c2ccccc2)c(N)c1S(=O)(=O)c1ccccc1` [Compound 3]: the IC50 was 0.339 µM.
In the case of `Cc1cccn2c(=O)c(/C=C3\SC(=S)N(Cc4ccco4)C3=O)c(NCC3CCCO3)nc12` (stereo not shown) [Compound 8], the IC50 is 0.117 µM.
Consider `O=c1c2nccnc2nc(SCc2cccc(F)c2)n1Cc1cccs1` [Compound 12], for which the IC50 is 5.62 µM.
`NC(=O)c1nc(Nc2ccccc2)sc1NC(=O)C12CC3CC(CC(C3)C1)C2` [Compound 1]: the IC50 was over 20 µM.
`CC(=O)N1CCc2c(sc3c2c(=O)n(Cc2ccccc2)c(=O)n3Cc2c(F)cccc2Cl)C1` [Compound 7]: the IC50 is 3.47 µM.

The target of another test is T2, human CB1 receptor (Homo sapiens, UniProt P21554). Kind of test: cAMP functional assay against CB1 receptor. The format is cell-based. The following applies: CB1 receptor, cAMP functional assay; read-out: antagonistic activities against the CB1 receptor. As for the experimental part: (§1) The binding and functional selectivity of the five compounds were tested by performing radioligand binding assays and cAMP functional assays against the CB1 receptor.
T2 sequence (P21554 whole entry): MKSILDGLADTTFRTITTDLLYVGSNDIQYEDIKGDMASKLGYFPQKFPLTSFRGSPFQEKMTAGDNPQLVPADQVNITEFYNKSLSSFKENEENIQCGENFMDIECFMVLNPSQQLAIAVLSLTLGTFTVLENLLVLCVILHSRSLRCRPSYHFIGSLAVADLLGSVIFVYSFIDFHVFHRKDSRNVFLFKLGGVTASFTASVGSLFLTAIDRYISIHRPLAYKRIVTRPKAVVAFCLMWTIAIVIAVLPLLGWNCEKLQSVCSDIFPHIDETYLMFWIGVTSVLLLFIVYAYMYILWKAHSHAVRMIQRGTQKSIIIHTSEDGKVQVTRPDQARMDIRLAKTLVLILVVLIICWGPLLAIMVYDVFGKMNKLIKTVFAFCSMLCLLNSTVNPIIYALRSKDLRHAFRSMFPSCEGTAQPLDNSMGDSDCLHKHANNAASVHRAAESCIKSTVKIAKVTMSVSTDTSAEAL
For `COc1ccccc1Nc1sc(C(=O)c2ccccc2)c(N)c1S(=O)(=O)c1ccccc1` [Compound 3], the IC50 is over 20 µM.
`Cc1cccn2c(=O)c(/C=C3\SC(=S)N(Cc4ccco4)C3=O)c(NCC3CCCO3)nc12` (stereo not shown) [Compound 8]: the IC50 is over 20 µM.
Same read-out and setting: the value for `O=c1c2nccnc2nc(SCc2cccc(F)c2)n1Cc1cccs1` [Compound 12] was over 20 µM.

Staying with this test, now noted: cAMP assay pIC50, human CB1 receptor.
The molecule `O=C(NC1CCCCCC1)c1cc(-c2cccs2)nn1Cc1ccc(F)cc1` [Compound 15] gave an IC50 of 4.57 µM.

The same test, now with this note: human CB1 receptor; read-out: cAMP assay pIC50 (converted).
`Cc1cccn2c(=O)c(/C=C3\SC(=S)N(Cc4ccco4)C3=O)c(NCC3CCCO3)nc12` (stereo not shown) [Compound 8]: the IC50 was over 20 µM.
The same measure, in the same setting: with `CC(=O)N1CCc2c(sc3c2c(=O)n(Cc2ccccc2)c(=O)n3Cc2c(F)cccc2Cl)C1` [Compound 7] the figure was 7.08 µM.

Another test has as its target T2, human CB1 receptor. Kind of test: Radioligand binding assays at human CB1 receptor. The note with it: read-out: Binding affinities pKi (converted). As for the experimental part: as §1
Turning to `COc1ccccc1Nc1sc(C(=O)c2ccccc2)c(N)c1S(=O)(=O)c1ccccc1` [Compound 3], the Ki is 18.6 µM.
As for `O=C(NC1CCCCCC1)c1cc(-c2cccs2)nn1Cc1ccc(F)cc1` [Compound 15], the Ki is 25.7 µM.
For `Cc1cccn2c(=O)c(/C=C3\SC(=S)N(Cc4ccco4)C3=O)c(NCC3CCCO3)nc12` (stereo not shown) [Compound 8], the Ki is 3.39 µM.
Take `O=c1c2nccnc2nc(SCc2cccc(F)c2)n1Cc1cccs1` [Compound 12]: the Ki was 38 µM.
For the molecule `CC(=O)N1CCc2c(sc3c2c(=O)n(Cc2ccccc2)c(=O)n3Cc2c(F)cccc2Cl)C1` [Compound 7], the Ki is 16.6 µM.

Another test concerns the target T1, human CB2 receptor. Kind of test: Radioligand binding assays at human CB2 receptor ([3H]-CP55940). The note with it: [3H]-CP55940 0.8 nM, 90 min, 30 °C, read-out: Binding Affinities pKi (converted). As for the experimental part:
The 15 compounds were purchased from J&K Scientific Ltd. (Shanghai, China). The radioligand binding assays and functional assays to CB2 receptor were performed by Pharmaron (Beijing) upon commission. In the CB2 receptor assays, [^3H]-CP55940 was used as the radioligand; the 15 compounds were tested in radioligand binding assays at human CB2 receptor ([^3H]-CP55940). The competition binding experiments of the test compounds at ten different concentrations and [^3H]-CP55940 (0.8 nM) against CB2 receptor (2 μg/well) were performed for 90 min at 30 °C in 500 μL of assay buffer (25 mM HEPES, 10 mM MgCl2, 1 mM CaCl2, 0.5% BSA, pH 7.4).
For `O=C(CSc1nc2nccnc2c(=O)n1Cc1ccc2c(c1)OCO2)Nc1ccc(F)cc1` [Compound 5], the Ki is 38 µM.
For `COc1ccc(-n2c(=O)c3c4c(sc3n(Cc3ccc(F)cc3)c2=O)CN(C(C)=O)CC4)cc1` [Compound 6], the Ki is 7.08 µM.
For the molecule `CCCCNC(=O)Cn1c(=O)n(-c2cccc(C(F)(F)F)c2)c(=O)c2sccc21` [Compound 10], the Ki is 17.8 µM.
Same read-out and setting: the value for `COc1ccccc1Nc1sc(C(=O)c2ccccc2)c(N)c1S(=O)(=O)c1ccccc1` [Compound 3] was 4.9 µM; that for `COc1cc(C2CC(=O)Nc3c2c(=O)n(C)c(=O)n3C)ccc1OCc1cccc(F)c1` (stereo not shown) [Compound 2] was over 100 µM.
Regarding `O=C(Cn1c(=O)n(Cc2ccccc2)c(=O)c2sc3ccccc3c21)NC1CCCCC1` [Compound 4], the Ki is over 100 µM.
Turning to `CC(=O)Nc1c2n(c3ccc(F)cc13)CC(C)(C(=O)NC1CCCC1)N(Cc1ccc(F)cc1)C2=O` (stereo not shown) [Compound 13], the Ki was 33.1 µM.
As to `CN(C(=O)c1nn(C)c2c1COc1ccccc1-2)c1cccc(C(F)(F)F)c1` [Compound 11], the Ki is 13.8 µM.
As for `O=C(NC1CCCCCC1)c1cc(-c2cccs2)nn1Cc1ccc(F)cc1` [Compound 15], the Ki was 1.74 µM.
Same read-out and setting: with `Cc1cccn2c(=O)c(/C=C3\SC(=S)N(Cc4ccco4)C3=O)c(NCC3CCCO3)nc12` (stereo not shown) [Compound 8] the figure was 0.219 µM; with `O=c1c2nccnc2nc(SCc2cccc(F)c2)n1Cc1cccs1` [Compound 12], 3.55 µM; with `NC(=O)c1nc(Nc2ccccc2)sc1NC(=O)C12CC3CC(CC(C3)C1)C2` [Compound 1], 1.58 µM.
Same read-out and setting: with `Cc1cc(S(=O)(=O)c2cc3cc(C(C)(C)C)cc(O)c3oc2=O)ccc1F` [Compound 9] the figure was 23.4 µM; with `CC(=O)N1CCc2c(sc3c2c(=O)n(Cc2ccccc2)c(=O)n3Cc2c(F)cccc2Cl)C1` [Compound 7], 6.61 µM; with `Cc1ccc(C)c(CNC(=O)c2cc(-c3cccs3)nn2Cc2ccc(F)cc2)c1` [Compound 14], 17.8 µM.

The target of another test is CB2 receptor.
Experiment: not given
The following applies: CB2 receptor; cited from earlier work.
On to `COc1ccc(C(=O)c2c(C)n(CCN3CCOCC3)c3cc(I)ccc23)cc1` [AM630], for which the pKi is 7.5.
Take SR144528: the negative logarithm of the Ki (pKi) is given as 8.3–9.2.

Still in this test, the particulars now being: pharmacophore training set, ChEMBL27 database; cited from earlier work.
For the molecule `CSC(=S)N1CC2(CCCCC2)CS/C1=N\c1cccc(C(C)C)c1` [CHEMBL231719], the Ki is 2.5 nM.
Regarding `CCCCCn1cc(C(=O)NC23CC4CC(CC(C4)C2)C3)c(=O)c2cc(-c3ccc(O)cc3)ccc21` [CHEMBL1215918], the Ki was 4.2 nM.
`COc1cc(C(O)c2cccs2)cc(OC)c1-c1cc(Cl)cc(Cl)c1` (stereo not shown) [CHEMBL1076685]: the Ki was 0.2 nM.
`C[C@@H](NS(=O)(=O)C(F)(F)F)c1ccc(S(=O)(=O)c2ccoc2S(=O)(=O)c2ccccc2F)cc1` [CHEMBL1270480]: the Ki is 4.4 nM.
With `COCCn1c(C)c(C)sc1=NC(=O)C1C(C)(C)C1(C)C` [CHEMBL1668519], the Ki is 0.64 nM.
Regarding `CCOC(=O)c1c(NC(=O)C23CC4CC(CC(C4)C2)C3)sc2c1CCCC2` [CHEMBL3909238], the Ki was 2.15 nM.
As to `CCCCCCC1(c2cc(O)c3c(c2)OC(C)(C)[C@@H]2CC=C(C)C[C@@H]32)CCCC1` [CHEMBL108868], the Ki is 1.91 nM.

Source of the values: paper PMC8587544, “Identification of Novel Antagonists Targeting Cannabinoid Receptor 2 Using a Multi-Step Virtual Screening Strategy” (Molecules, 2021).
